Measurements taken from patent US12685734B2, “N6-methyladenosine regulators in uterine fibroids” (The University of Chicago, priority 2021, dated 2026).

Tests used:
[1] = tested on: Eker rats carrying Tsc2 germline mutation; conditions: early-life exposure during development of the uterus, cited from earlier work
HuLM cells = assay: Cell proliferation, trypan blue exclusion assay, METTL3 inhibition; format: cell-based, human; conditions: 1-10 μM, 24 hours, vs DMSO vehicle, FIG. 9
Description: The HuLM cell line was cultured and maintained in phenol red-free, Dulbecco's Modified Eagle Medium: Nutrient Mixture F-12. The cells were grown at 37° C. and 5% CO2 in an incubator with saturating humidity.
Cell proliferation was measured using trypan blue exclusion assay. The cells were cultured in the absence or presence of the METTL3 inhibitor STM2457 at a dose range from 1-10 μM for 24 hours. DMSO was used as a vehicle control. Cells were trypsinized, collected by centrifuge, and resuspended in serum-free medium. Equal volumes of 0.4% trypan blue and cell suspension were mixed and cells were counted using a hemacytometer. This assay was performed three times in triplicate.

CC/C(=C(/CC)c1ccc(O)cc1)c1ccc(O)cc1 [diethylstilbestrol]
tumor multiplicity and size ([1]; genetically predisposed animals): increases
tumor-suppressor-gene penetrance ([1]; spontaneous frequency 65%): > 90%

STM2457
cell proliferation of UF cells (relative cell numbers) (HuLM cells): decreases the cell proliferation
